Measured values reported in BigSolDB 2.1.

CCOC(=O)[C@@H](C)Oc1ccc(Oc2nc3ccc(Cl)cc3o2)cc1
solubility (mole fraction)
Details | 278.15 K | 283.15 K | 288.15 K | 293.15 K | 298.15 K | 303.15 K | 308.15 K | 313.15 K | 318.15 K | 323.15 K
in ethanol | 0.000972 | 0.00121 | 0.0015 | 0.00186 | 0.00224 | 0.00266 | 0.00314 | 0.00376 | 0.00446 | 0.00534
in water | 1.93e-06 | 2.91e-06 | 4.12e-06 | 5.68e-06 | 7.36e-06 | 9.61e-06 | 1.24e-05 | 1.59e-05 | 2.03e-05 | 2.57e-05
